These are literature values, as cited in patent publication US10925925B2, “Therapy of atherosclerosis, primary biliary cirrhosis and NRLP3 inflammasome-associated disease by HTCP inhibitors” (MYR GmbH, priority 2017, dated 2021).

The structures appear in SMILES notation. Read-outs that look alike come from different tables or passages of the source.

In series [1] the test system is patients with PBC. The note with it: month 12, placebo arm 10%.
In series [2] the test system is patients with PBC. The note with it: PBC patients treated with UDCA.

For `CC[C@H]1[C@@H](O)[C@@H]2[C@H](CC[C@]3(C)[C@@H]([C@H](C)CCC(=O)O)CC[C@@H]23)[C@@]2(C)CC[C@@H](O)C[C@@H]12` [OCA, obeticholic acide], the “patients achieving the primary endpoint (predominantly reduction in ALP)” value is 47% in the series with patients with PBC [1] (OCA 10 mg arm) and 46% in the series on patients with PBC [1] (OCA titration arm).

Turning to `C[C@H](CCC(=O)O)[C@H]1CC[C@H]2[C@@H]3[C@@H](O)C[C@@H]4C[C@H](O)CC[C@]4(C)[C@H]3CC[C@]12C` [UDCA, ursodeoxicholic acid], the “patients who do not achieve adequate biochemical response” value with patients with PBC [2] was “about 40%”.
